# Reference: patent publication US20130115624A1, “Methods To Identify Modulators” (Givaudan S.A., priority 2010, published 2013)
# Read-outs that look alike come from different tables or passages of the source.
# Test system: Sham Transfected HEK293T/G16gust44 cells
# Method: HEK293T/G16gust44 cells were used; they were formed as described in WO 2004/055048. The host cell line HEK-293T is commercially available from the American Tissue Culture Collection (ATCC), ATCC®#CRL-11268.
# On day 0, the HEK293T/G16gust44 cells were plated in 96-well black wall, clear-bottom plates at a density of 15,000 cells per well and grown overnight in growth media (Dulbecco's modified Eagle's medium (DMEM) with 10% (v/v) heat-inactivated fetal bovine serum, 2 mM L-glutamine, 100 units/ml penicillin, 100 μg/ml streptomycin).
# On day 1, the media was changed to an antibiotic-free and serum-free DMEM, and the cells were transfected with Lipofectamine 2000 (Invitorgen) according to the manufacturer's recommendations.
# Per well of a 96-well plate, 150 ng of vector DNA (TAS2R41 expression vectors from example 1) was diluted in 12.5 μl of DMEM. In a second tube, 0.3 μl of Lipofectamine 2000 was diluted in 12.5 μl of DMEM and incubated for 5 min at room temperature. After the 5 min, both solutions were mixed and incubated for 20 min at RT.
# The growth medium in the plate was exchanged with 50 μl of DMEM and 25 μl of the lipofectamine/DNA mixture (formed in the step above) and the cells were incubated for a further 3-4 hours at 37° in a humidified atmosphere. This mixture was then replaced with an antibiotic-free, serum-containing DMEM.
# The above procedure was also carried out for HEK293T/G16gust44 cells formed as described in WO 2004/055048 with the exception that no DNA was added during the process (these cells are termed Sham transfected cells);
# Each sample (receptors as well as controls) contained a final concentration of 0.02% Dimethyl sulphoxide (DMSO) to allow for comparability of all examples below.
# On day 0, the HEK293T cells formed as described in example 2, were seeded in antibiotic-free growth medium (standard DMEM with 10% (v/v) heat-inactivated fetal bovine serum, 2 mM L-glutamine […]) into black wall/clear bottom 96-well plates, coated with poly(ethylenimine) (0.005% v/v) at a concentration of 15,000 cells per well and incubated for 48 hours in humidified atmosphere (37° C., 5% CO2).
# Prior to performing the assay, the growth medium was discarded and the cells were left in a humidified atmosphere (37° C., 5% CO2) for 1 hour with 50 μl of loading buffer consisting of 1.5 μM Fluo-4 AM and […] probenicid (Sigma-Aldrich, St. Louis, Mo., US) in DMEM.
# Following this the 96-well plate was washed 5 times with 100 μl of assay buffer (130 mM NaCl, 5 mM KCl, 10 mM 4-(2-hydroxyethyl)-1-piperazineethanesulfonic acid (HEPES), 2 mM CaCl2, and 5 mM dextrose, pH 7.4) per well, using an automated plate washer (BioTek).
# The plate was then further incubated for 30 minutes at room temperature in the dark to allow for complete de-esterification of the Fluo-4. Afterwards the plate was washed 5 times with 100 μl of assay buffer per well, and reconstituted with 100 μl of assay buffer per well.
# Cyclamate solutions ranging in concentration from 250 mM to 800 mM were prepared in assay buffer.
# To test receptor activation 20 μl of one of these cyclamate test solutions was added to the assay buffer of at least one well of the 96 well plate. This step was repeated until all cyclamate solutions of differing concentrations had been added to at least one well. Care was taken to ensure that only one cyclamate solution was added per well. The resulting cyclamate concentrations in the well plates ranged in concentration from 25 mM to 80 mM (This is due to the dilution of the cyclamate solution in the assay buffer present in the well).
# For assay reading, the plate was placed in a Fluorometric Imaging Plate Reader (FLIPR) (FLIPR-TETRA™, Molecular Devices, Sunnyvale, Calif., US).
smiles,measurement,setting,value
"O=S(=O)(O)NC1CCCCC1 [Cyclamate, cyclamate]",Cyclamate Average ΔF/F0,25 mM cyclamate in well,0.1588
same,Cyclamate Average ΔF/F0,30 mM cyclamate in well,0.1665
same,Cyclamate Average ΔF/F0,35 mM cyclamate in well,0.1676
same,Cyclamate Average ΔF/F0,40 mM cyclamate in well,0.1718
same,Cyclamate Average ΔF/F0,45 mM cyclamate in well,0.1765
same,Cyclamate Average ΔF/F0,50 mM cyclamate in well,0.1676
same,Cyclamate Average ΔF/F0,55 mM cyclamate in well,0.1682
same,Cyclamate Average ΔF/F0,60 mM cyclamate in well,0.1453
same,Cyclamate Average ΔF/F0,65 mM cyclamate in well,0.1382
same,Cyclamate Average ΔF/F0,70 mM cyclamate in well,0.1529
same,Cyclamate Average ΔF/F0,75 mM cyclamate in well,0.1329
same,Cyclamate Average ΔF/F0,80 mM cyclamate in well,0.1465
